Like-named read-outs stand apart in the source and are kept apart here.
Biological target: T1, AR (Homo sapiens, UniProt P10275)
T1 construct: endogenous in cells; host or cells: VCaP cells
T1 sequence (P10275 1-920): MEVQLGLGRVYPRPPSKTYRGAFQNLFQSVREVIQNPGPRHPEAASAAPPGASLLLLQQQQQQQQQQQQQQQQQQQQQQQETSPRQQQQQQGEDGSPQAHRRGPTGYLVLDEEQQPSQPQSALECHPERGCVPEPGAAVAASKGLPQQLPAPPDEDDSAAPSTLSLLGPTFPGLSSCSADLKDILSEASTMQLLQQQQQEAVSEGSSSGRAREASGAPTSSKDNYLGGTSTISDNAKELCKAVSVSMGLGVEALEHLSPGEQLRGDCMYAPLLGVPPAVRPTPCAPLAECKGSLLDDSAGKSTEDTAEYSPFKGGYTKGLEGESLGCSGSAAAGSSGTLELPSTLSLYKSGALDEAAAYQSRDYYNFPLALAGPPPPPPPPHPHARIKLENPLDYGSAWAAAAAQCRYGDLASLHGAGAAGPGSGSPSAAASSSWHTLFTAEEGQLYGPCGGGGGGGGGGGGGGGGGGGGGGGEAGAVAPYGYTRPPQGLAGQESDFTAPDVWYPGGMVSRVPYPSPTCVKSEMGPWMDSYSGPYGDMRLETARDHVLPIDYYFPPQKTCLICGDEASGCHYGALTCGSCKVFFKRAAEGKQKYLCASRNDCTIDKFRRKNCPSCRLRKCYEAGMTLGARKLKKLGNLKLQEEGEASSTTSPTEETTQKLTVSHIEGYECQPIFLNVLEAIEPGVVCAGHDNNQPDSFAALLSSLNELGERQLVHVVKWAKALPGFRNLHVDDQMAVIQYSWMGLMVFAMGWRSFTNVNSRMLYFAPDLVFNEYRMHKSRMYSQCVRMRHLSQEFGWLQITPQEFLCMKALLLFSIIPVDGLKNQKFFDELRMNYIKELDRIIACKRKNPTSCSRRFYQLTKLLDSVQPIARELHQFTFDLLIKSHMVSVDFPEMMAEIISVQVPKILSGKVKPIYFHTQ
Assay: VCAP AR Degradation Assay
Format: cell-based
Conditions: for Y (AR degradation efficiency, % of DMSO control): class symbols *; for DC50: class symbols A-C
In short: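 24 h, 37 °C, VCaP (DMEM/8% FBS), 10-pt 1:3 dilutions from 5 μM final top, 0.1% DMSO ctrl. Lysis on ice/4 °C 1 h; total AR by sandwich ELISA, normalized to DMSO. 4PL fit → DC50, EC50, Y (min AR level).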

Compound	Y (AR degradation efficiency, % of DMSO control)	DC50 (read-out: DC50)	DC50
CCc1cc(N2C(=S)N(c3cnc(C#N)c(C(F)(F)F)c3)C(=O)C2(C)C)ccc1OCCN1C[C@@H](C)N(CC(=O)Nc2cccc(NC3CCC(=O)NC3=O)c2)[C@@H](C)C1 (stereo partly drawn) [Example 151, 2-((2R,6S)-4-(2-(4-(3-(6-cyano-5-(trifluoromethyl)pyridin-3-yl)-5,5-dimethyl-4-oxo-2-thioxoimidazolidin-1-yl)-2-ethylphenoxy)ethyl)-2,6-dimethylpiperazin-1-yl)-N-(3-(2,6-dioxopiperidin-3-ylamino)phenyl)acetamide]	* (0<Y<=25%)	< 100 nM	
CCc1cc(N2C(=S)N(c3cnc(C#N)c(C(F)(F)F)c3)C(=O)C2(C)C)ccc1OCCN1CC2CCC(C1)N2CC(=O)Nc1cc(Cl)cc(NC2CCC(=O)NC2=O)c1 (centres unmarked) [Example 173, N-(3-chloro-5-(2,6-dioxopiperidin-3-ylamino)phenyl)-2-(3-(2-(4-(3-(6-cyano-5-(trifluoromethyl)pyridin-3-yl)-5,5-dimethyl-4-oxo-2-thioxoimidazolidin-1-yl)-2-ethylphenoxy)ethyl)-3,8-diazabicyclo[3.2.1]octan-8-yl)acetamide]	* (0<Y<=25%)		< 100 nM
CCc1cc(N2C(=S)N(c3ccc(C#N)c(C(F)(F)F)c3)C(=O)C2(C)C)ccc1OCCN1C[C@@H](C)N(CC(=O)Nc2cc(C#N)cc(NC3CCC(=O)NC3=O)c2)C[C@H]1C (stereo partly drawn) [Example 181, 2-((2R,5R)-4-(2-(4-(3-(4-cyano-3-(trifluoromethyl)phenyl)-5,5-dimethyl-4-oxo-2-thioxoimidazolidin-1-yl)-2-ethylphenoxy)ethyl)-2,5-dimethylpiperazin-1-yl)-N-(3-cyano-5-(2,6-dioxopiperidin-3-ylamino)phenyl)acetamide]	* (0<Y<=25%)	< 100 nM	
C[C@@H]1CN(CCOc2ccc(N3C(=S)N(c4ccc(C#N)c(C(F)(F)F)c4)C(=O)C34CCCC4)cc2C2CC2)C[C@H](C)N1CC(=O)Nc1cccc(NC2CCC(=O)NC2=O)c1 (stereo partly drawn) [Example 266, 2-((2S,6R)-4-(2-(4-(3-(4-cyano-3-(trifluoromethyl)phenyl)-4-oxo-2-thioxo-1,3-diazaspiro[4.4]nonan-1-yl)-2-cyclopropylphenoxy)ethyl)-2,6-dimethylpiperazin-1-yl)-N-(3-(2,6-dioxopiperidin-3-ylamino)phenyl)acetamide]	* (0<Y<=25%)	< 100 nM	
CCc1cc(N2C(=S)N(c3ccc(C#N)c(C(F)(F)F)c3)C(=O)C2(C)C)ccc1O[C@@H](C)CN1C[C@@H](C)N(CC(=O)Nc2cccc(NC3CCC(=O)NC3=O)c2)[C@@H](C)C1 (single isomer, unassigned) [Example 242]	*** (35%<Y<50%)	500 to 1000 nM	
C[C@@H]1CN(CCOc2ccc(N3C(=S)N(c4cnc(C#N)c(C(F)(F)F)c4)C(=O)C34CCC4)cc2CCF)CCN1CC(=O)Nc1cc(Cl)cc(NC2CCC(=O)NC2=O)c1 (stereo partly drawn) [Example 142, N-(3-chloro-5-(2,6-dioxopiperidin-3-ylamino)phenyl)-2-((R)-4-(2-(4-(7-(6-cyano-5-(trifluoromethyl)pyridin-3-yl)-8-oxo-6-thioxo-5,7-diazaspiro[3.4]octan-5-yl)-2-(2-fluoroethyl)phenoxy)ethyl)-2-methylpiperazin-1-yl)acetamide]	* (0<Y<=25%)	< 100 nM	
CCc1cc(N2C(=S)N(c3cnc(C#N)c(C(F)(F)F)c3)C(=O)C2(C)C)ccc1OCCN1CCN(CC(=O)Nc2cc(NC3CCC(=O)NC3=O)ccc2F)[C@H](C)C1 (stereo partly drawn) [Example 76, 2-((R)-4-(2-(4-(3-(6-cyano-5-(trifluoromethyl)pyridin-3-yl)-5,5-dimethyl-4-oxo-2-thioxoimidazolidin-1-yl)-2-ethylphenoxy)ethyl)-2-methylpiperazin-1-yl)-N-(5-(2,6-dioxopiperidin-3-ylamino)-2-fluorophenyl)acetamide]	* (0<Y<=25%)	< 100 nM	
CC1(C)C(=O)N(c2ccc(C#N)c(C(F)(F)F)c2)C(=S)N1c1ccc(OCCN2CCN(CC(=O)Nc3cc(Cl)cc(NC4CCC(=O)NC4=O)c3)CC2)c(CCF)c1 (centres unmarked) [Example 136, N-(3-chloro-5-(2,6-dioxopiperidin-3-ylamino)phenyl)-2-(4-(2-(4-(3-(4-cyano-3-(trifluoromethyl)phenyl)-5,5-dimethyl-4-oxo-2-thioxoimidazolidin-1-yl)-2-(2-fluoroethyl)phenoxy)ethyl)piperazin-1-yl)acetamide]	* (0<Y<=25%)	< 100 nM	
C[C@@H]1CN(CCOc2ccc(N3C(=S)N(c4ccc(C#N)c(C(F)(F)F)c4)C(=O)C3(C)C)cc2CC(F)F)CCN1CC(=O)Nc1cc(Cl)cc(NC2CCC(=O)NC2=O)c1 (stereo partly drawn) [Example 152, N-(3-chloro-5-(2,6-dioxopiperidin-3-ylamino)phenyl)-2-((R)-4-(2-(4-(3-(4-cyano-3-(trifluoromethyl)phenyl)-5,5-dimethyl-4-oxo-2-thioxoimidazolidin-1-yl)-2-(2,2-difluoroethyl)phenoxy)ethyl)-2-methylpiperazin-1-yl)acetamide]	* (0<Y<=25%)	< 100 nM	
C[C@@H]1CN(CC(=O)Nc2cccc(NC3CCC(=O)NC3=O)c2)[C@H](C)CN1CCOc1ccc(N2C(=S)N(c3cnc(C#N)c(C(F)(F)F)c3)C(=O)C2(C)C)cc1C1CC1 (stereo partly drawn) [Example 234, 2-((2R,5R)-4-(2-(4-(3-(6-cyano-5-(trifluoromethyl)pyridin-3-yl)-5,5-dimethyl-4-oxo-2-thioxoimidazolidin-1-yl)-2-cyclopropylphenoxy)ethyl)-2,5-dimethylpiperazin-1-yl)-N-(3-(2,6-dioxopiperidin-3-ylamino)phenyl)acetamide]	* (0<Y<=25%)	< 100 nM	
CCc1cc(N2C(=S)N(c3cnc(C#N)c(C(F)(F)F)c3)C(=O)C2(C)C)ccc1OCCN1CCN(CC(=O)Nc2cc(Cl)cc(NC3CCC(=O)NC3=O)c2)C(C)(C)C1 (centres unmarked) [Example 78, N-(3-chloro-5-(2,6-dioxopiperidin-3-ylamino)phenyl)-2-(4-(2-(4-(3-(6-cyano-5-(trifluoromethyl)pyridin-3-yl)-5,5-dimethyl-4-oxo-2-thioxoimidazolidin-1-yl)-2-ethylphenoxy)ethyl)-2,2-dimethylpiperazin-1-yl)acetamide]	* (0<Y<=25%)	< 100 nM	
CCc1cc(N2C(=S)N(c3ccc(C#N)c(C(F)(F)F)c3)C(=O)C2(C)C)ccc1OCCN1CCN([C@H](C)C(=O)Nc2cccc(NC3CCC(=O)NC3=O)c2)CC1 (stereo partly drawn) [Example 199, (2R)-2-(4-(2-(4-(3-(4-cyano-3-(trifluoromethyl)phenyl)-5,5-dimethyl-4-oxo-2-thioxoimidazolidin-1-yl)-2-ethylphenoxy)ethyl)piperazin-1-yl)-N-(3-(2,6-dioxopiperidin-3-ylamino)phenyl)propanamide]	** (25%<Y<=35%)	< 100 nM	
CCc1cc(N2C(=S)N(c3ccc(C#N)c(C(F)(F)F)c3)C(=O)C2(C)C)ccc1OCCN1CCN(CC(=O)Nc2cccc(NC3CCC(=O)NC3=O)c2)[C@@H](CO)C1 (some centres unmarked) [Example 51]	*** (35%<Y<50%)	100 to 500 nM	
